ChEMBL document CHEMBL1201862, “PubChem BioAssay data set” (2004)
The source made the active and inactive calls.

What was measured:
[1] = viability loss in HeLa cells – cytotoxicity control for MgcRacGAP inhibitor project, dose response (AID 624300); assay type: functional
[2] = biological target: T1, Microphthalmia-associated transcription factor (Homo sapiens, UniProt O75030); test: reducers of TRPM1 reporter luminescence, concentration series – cell-based, SK-MEL-5, cherry-picked, set 3, MITF inhibitor project, dose response (AID 493073); assay type: functional;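 also: SK-MEL-5 melanoma cells with luciferase driven by the MITF target TRPM1 promoter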
T1 sequence (O75030 whole entry): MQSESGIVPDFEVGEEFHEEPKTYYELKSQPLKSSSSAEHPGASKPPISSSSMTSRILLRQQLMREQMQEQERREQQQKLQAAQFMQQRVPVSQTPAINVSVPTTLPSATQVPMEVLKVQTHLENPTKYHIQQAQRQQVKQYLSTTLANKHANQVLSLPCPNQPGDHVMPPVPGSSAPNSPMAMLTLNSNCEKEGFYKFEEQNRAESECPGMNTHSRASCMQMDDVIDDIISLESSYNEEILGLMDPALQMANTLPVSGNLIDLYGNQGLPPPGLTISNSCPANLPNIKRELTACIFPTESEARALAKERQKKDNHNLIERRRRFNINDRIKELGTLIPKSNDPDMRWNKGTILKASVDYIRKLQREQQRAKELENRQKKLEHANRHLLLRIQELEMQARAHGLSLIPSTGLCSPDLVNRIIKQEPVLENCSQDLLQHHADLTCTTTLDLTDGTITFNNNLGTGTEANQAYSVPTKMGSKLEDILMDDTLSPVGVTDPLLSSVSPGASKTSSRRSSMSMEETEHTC

[3] = viability loss in HEK293 cells – cell-based, plate reader, cherry-picked samples, cytotoxicity control, dose response (AID 743446); assay type: functional
[4] = THP-1 cell cytotoxicity, dose response, cytotoxicity control for non-replicating M. tuberculosis project (AID 489025); assay type: functional
[5] = A549 cell cytotoxicity, dose response, cytotoxicity control, plate reader, cherry-pick, antagonist series (AID 743412); assay type: functional, cell-based
A-375 = test: proliferation inhibition in MITF-low A375 cells – cell-based, cherry-pick samples, set 2, counter-screen for MITF modulator project, dose response (AID 540335); assay type: functional; conditions: Homo sapiens
[6] = biological target: T2, Rac GTPase-activating protein 1 (Homo sapiens, UniProt Q9H0H5); test: blockers of MgcRacGAP-driven Rac1 GTP hydrolysis – biochemical, ADP Hunter fluorescence, primary and confirmatory, confirmation (AID 624330); assay type: functional
T2 sequence (Q9H0H5 whole entry): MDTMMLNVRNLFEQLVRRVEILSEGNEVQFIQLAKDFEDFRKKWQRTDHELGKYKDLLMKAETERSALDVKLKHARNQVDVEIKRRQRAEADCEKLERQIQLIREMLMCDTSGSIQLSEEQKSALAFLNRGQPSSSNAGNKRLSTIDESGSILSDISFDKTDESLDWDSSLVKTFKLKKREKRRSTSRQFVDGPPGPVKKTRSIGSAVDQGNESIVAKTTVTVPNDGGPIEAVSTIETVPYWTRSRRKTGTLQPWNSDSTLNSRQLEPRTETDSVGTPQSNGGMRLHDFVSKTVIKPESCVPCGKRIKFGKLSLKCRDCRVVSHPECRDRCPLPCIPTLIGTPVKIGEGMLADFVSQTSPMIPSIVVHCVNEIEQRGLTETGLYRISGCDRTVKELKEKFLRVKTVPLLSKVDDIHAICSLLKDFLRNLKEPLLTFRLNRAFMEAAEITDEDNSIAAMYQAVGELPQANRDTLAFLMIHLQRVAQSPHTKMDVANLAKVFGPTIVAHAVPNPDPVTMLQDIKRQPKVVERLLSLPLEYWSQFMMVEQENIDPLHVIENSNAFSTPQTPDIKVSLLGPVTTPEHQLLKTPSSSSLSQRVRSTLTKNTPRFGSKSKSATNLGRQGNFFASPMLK

[7] = toxicity toward HepG2 liver cells – cell-based, plate reader, cherry-pick, antagonist series, cytotoxicity control, dose response (AID 743416); assay type: functional
[8] = blockade of melanocortin 4 receptor signaling – cell-based, plate reader, cherry pick, counter-screen for LGR2 antagonist project, dose response (AID 743444); assay type: functional;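 also: transfected HEK 293 cells stimulated with alpha-MSH peptide; potency of inhibitors of the alpha-MSH evoked signal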
cells = assay type: functional
[9] = blockers of bursicon-stimulated LGR2 cAMP reporter – cell-based, HEK293, CRE-luciferase reporter, cherry pick, set 2, dose response (AID 743343); assay type: functional;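 also: transfected cells were stimulated with diluted bursicon conditioned medium after compound addition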
[10] = Vero E6 cell cytotoxicity, dose response, cytotoxicity control for non-replicating M. tuberculosis project, secondary assay (AID 492998); assay type: functional, VeroE6; conditions: Vero C1008
[11] = HepG2 cell cytotoxicity, dose response, cytotoxicity control for non-replicating M. tuberculosis project (AID 489018); assay type: functional; conditions: Mycobacterium tuberculosis
[12] = biological target: T3, Ubiquitin-conjugating enzyme E2 N (Homo sapiens, UniProt P61088); assay type: functional;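 also: Dose-response confirmation in a TR-FRET assay detecting UBC13-driven polyubiquitin chain formation, inhibition measured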
T3 sequence (P61088 whole entry): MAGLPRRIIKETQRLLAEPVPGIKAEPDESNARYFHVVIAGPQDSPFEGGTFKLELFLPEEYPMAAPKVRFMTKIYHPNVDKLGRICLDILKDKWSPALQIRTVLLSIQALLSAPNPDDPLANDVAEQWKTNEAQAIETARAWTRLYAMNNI

Candida albicans = test: Candida growth inhibition combined with fluconazole – CaCi-2 strain, Alamar Blue, dry powder, set 3, dose response (AID 488907); assay type: functional, organism-based
[13] = biological target: Sphingosine 1-phosphate receptor 5 (Homo sapiens, UniProt Q9H228); test: (§1) Late-stage fluorescence-based dose-response cell-based assay to identify agonists of the Sphingosine 1-Phosphate Receptor 4 (S1P4): Sphingosine 1-Phosphate Receptor 5 (S1P5) counterscreen assay. [Related pubchem assays (depositor defined):AID1509, AID1523, AID1563, AID1686, AID1701, AID1801, AID463107, AID463225, AID504400]; assay type: functional
Sphingosine 1-phosphate receptor 5, sequence (Q9H228 whole entry): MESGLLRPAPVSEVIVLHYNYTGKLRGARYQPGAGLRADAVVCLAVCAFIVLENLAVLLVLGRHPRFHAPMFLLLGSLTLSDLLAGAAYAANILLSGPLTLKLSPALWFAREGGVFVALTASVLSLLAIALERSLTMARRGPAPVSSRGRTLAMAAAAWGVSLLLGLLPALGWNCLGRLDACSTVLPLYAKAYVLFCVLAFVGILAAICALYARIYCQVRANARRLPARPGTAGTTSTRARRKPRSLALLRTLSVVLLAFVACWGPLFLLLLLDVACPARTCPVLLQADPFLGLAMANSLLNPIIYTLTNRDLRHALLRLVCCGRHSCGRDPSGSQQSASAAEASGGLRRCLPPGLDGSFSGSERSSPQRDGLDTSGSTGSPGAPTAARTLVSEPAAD

[14] = biological target: Sphingosine 1-phosphate receptor 3 (Homo sapiens, UniProt Q99500); test: as §1, with “3 (S1P3)” for “5 (S1P5)”; assay type: functional
Sphingosine 1-phosphate receptor 3, sequence (Q99500 whole entry): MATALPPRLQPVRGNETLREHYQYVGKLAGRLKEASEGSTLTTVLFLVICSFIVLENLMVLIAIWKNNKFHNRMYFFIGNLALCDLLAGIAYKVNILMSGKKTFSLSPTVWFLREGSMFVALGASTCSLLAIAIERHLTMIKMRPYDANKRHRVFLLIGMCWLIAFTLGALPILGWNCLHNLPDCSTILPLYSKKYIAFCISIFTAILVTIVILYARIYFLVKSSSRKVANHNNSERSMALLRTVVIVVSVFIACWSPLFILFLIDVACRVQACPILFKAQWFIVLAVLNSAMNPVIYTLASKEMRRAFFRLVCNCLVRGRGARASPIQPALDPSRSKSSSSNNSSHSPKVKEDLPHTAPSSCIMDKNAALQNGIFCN

[15] = biological target: Sphingosine 1-phosphate receptor 1 (Homo sapiens, UniProt P21453); test: as §1, with “1 (S1P1)” for “5 (S1P5)”; assay type: functional
Sphingosine 1-phosphate receptor 1, sequence (P21453 whole entry): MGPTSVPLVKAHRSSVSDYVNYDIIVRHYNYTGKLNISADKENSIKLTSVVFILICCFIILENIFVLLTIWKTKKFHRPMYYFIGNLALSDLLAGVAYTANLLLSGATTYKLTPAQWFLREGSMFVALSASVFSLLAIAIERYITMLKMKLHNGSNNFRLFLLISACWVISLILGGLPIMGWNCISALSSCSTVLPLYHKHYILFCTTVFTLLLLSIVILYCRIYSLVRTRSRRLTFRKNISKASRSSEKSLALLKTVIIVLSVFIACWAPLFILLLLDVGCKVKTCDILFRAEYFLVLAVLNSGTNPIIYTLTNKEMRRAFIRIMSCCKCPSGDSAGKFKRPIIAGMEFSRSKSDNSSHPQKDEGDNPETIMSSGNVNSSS

[16] = Late-stage assay provider results from the probe development effort to identify agonists of the Sphingosine 1-Phosphate Receptor 4 (S1P4): luminescence-based cell-based dose response assay to determine cytotoxicity of agonist compounds. [Related pubchem assays (depositor defined):AID1509, AID1523, AID1563, AID1686, AID1701, AID1801, AID463107, AID463225, AID504400]; assay type: functional
[17] = biological target: Sphingosine 1-phosphate receptor 4 (Homo sapiens, UniProt O95977); test: Late-stage fluorescence dose response cell-based counterscreening assay for agonists of the Sphingosine 1-Phosphate Receptor 4 (S1P4): inhibition by S1P4-selective antagonist. [Related pubchem assays (depositor defined):AID1509, AID1523, AID1563, AID1686, AID1701, AID1801, AID463107, AID463118, AID463119, AID463122, AID463123, AID463129, AID504400]; assay type: functional
Sphingosine 1-phosphate receptor 4, sequence (O95977 whole entry): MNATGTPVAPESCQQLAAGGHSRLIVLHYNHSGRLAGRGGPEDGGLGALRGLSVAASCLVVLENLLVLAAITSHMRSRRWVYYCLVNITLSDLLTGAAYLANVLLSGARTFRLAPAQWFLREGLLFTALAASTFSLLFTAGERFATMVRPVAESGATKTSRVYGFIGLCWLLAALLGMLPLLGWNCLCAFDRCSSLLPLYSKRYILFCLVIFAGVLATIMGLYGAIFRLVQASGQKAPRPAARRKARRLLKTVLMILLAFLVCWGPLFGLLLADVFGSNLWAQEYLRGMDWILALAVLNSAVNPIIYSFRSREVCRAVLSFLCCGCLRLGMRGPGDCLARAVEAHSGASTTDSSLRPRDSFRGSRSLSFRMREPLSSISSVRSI

[18] = biological target: Sphingosine 1-phosphate receptor 2 (Homo sapiens, UniProt O95136); test: as §1, with “2 (S1P2)” for “5 (S1P5)”; assay type: functional
Sphingosine 1-phosphate receptor 2, sequence (O95136 whole entry): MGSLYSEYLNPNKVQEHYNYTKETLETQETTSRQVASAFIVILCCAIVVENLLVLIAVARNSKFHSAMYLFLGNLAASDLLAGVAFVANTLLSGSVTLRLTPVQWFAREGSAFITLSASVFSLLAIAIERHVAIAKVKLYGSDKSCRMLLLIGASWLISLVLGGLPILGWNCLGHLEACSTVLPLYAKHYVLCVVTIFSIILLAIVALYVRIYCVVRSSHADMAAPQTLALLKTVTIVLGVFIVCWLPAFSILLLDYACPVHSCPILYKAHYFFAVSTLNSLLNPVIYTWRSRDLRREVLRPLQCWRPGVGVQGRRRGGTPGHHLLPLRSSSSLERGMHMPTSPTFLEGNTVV

SMILES: CC(C)(c1ccccc1)c1ccc(OCC(O)CNC2CCN(Cc3ccccc3)CC2)cc1 (stereo unspecified)
- CC50 [1]: 17.6 µM (active)
- AC50 [2]: 7.94 µM (active)
- AC50 [3]: 8.12 µM (active)
- CC50 [4]: 6.44 µM (active)
- AC50 [5]: 6.42 µM (active)
- AC50 (A-375): 18.1 µM (active)
- IC50 [6]: 50.6 µM (active)
- AC50 [7]: 4.23 µM (active)
- AC50 [8]: 6.77 µM (active)
- IC50 (cells): 5.15 µM (active)
- AC50 [9]: 10.5 µM (active)
- CC50 [10]: 5.72 µM (active)
- CC50 [11]: 6.65 µM (active)
- IC50 [12]: > 20 µM (inactive)

SMILES: N#Cc1cccnc1N1CCN(C(=O)c2ccc(Cl)cc2)CC1
- AC50 (Candida albicans): 0.611 µM (active)

SMILES: Clc1ccc(OCCOc2ccc(Br)nc2Br)c(Cl)c1
- EC50 [13]: > 50 µM (inactive)
- EC50 [14]: > 50 µM (inactive)
- EC50 [15]: > 50 µM (inactive)
- CC50 [16]: > 20 µM (inactive)
- IC50 [17]: 0.83 µM (active)
- EC50 [18]: > 50 µM (inactive)
